# Publication PMC3504484 (Journal of Medicinal Chemistry, 2012)
# Read-outs that look alike come from different tables or passages of the source.
# How the values were obtained:
# [1] = target: T1, 5-HT3A receptor (Homo sapiens, UniProt P46098); type: binding
# T1 sequence (P46098 24-478): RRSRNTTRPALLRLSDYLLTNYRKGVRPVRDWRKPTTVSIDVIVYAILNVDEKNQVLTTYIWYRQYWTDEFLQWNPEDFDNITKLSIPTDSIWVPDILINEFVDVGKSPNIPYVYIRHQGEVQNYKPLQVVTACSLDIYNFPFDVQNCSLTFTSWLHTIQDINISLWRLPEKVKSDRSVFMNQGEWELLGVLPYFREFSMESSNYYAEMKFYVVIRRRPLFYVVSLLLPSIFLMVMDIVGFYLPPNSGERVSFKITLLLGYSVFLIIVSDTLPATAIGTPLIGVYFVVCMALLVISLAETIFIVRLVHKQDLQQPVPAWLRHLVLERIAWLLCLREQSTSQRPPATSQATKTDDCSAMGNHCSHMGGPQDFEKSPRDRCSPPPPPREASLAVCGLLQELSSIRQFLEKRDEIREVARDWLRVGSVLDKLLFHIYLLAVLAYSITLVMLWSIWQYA
# [2] = system: Glycine; assay: single point radioligand competition binding; set-up: species or system rat; conditions: 0.1 µM
# [3] = compared to parent isoquinoline compound 52
# [4] = compared to quinoline compound 51
smiles,measurement,setting,value
CN1CCN(c2nc(O)c3cc(Cl)ccc3n2)CC1 [Compound 48],fold reduction in affinity,[1],~500 fold
CN1CCN(c2cnc3ccccc3n2)CC1 [Compound 50],fold lower affinity,"[1]; compared to compounds 49, 51 and 52",3–10 fold
CN1CCN(c2nc(N)c3cc(Cl)ccc3n2)CC1 [Compound 12],fold reduction in affinity,[1],~10 fold
CN1CCN(c2nc(N)c3ccccc3n2)CC1 [Compound 22],selectivity for the 5-HT3A receptor over the H4R,[1]; H4R affinity from ref 35,~40 000 fold
same,% inhibition of control specific binding ± s.e.m.,[2],<15%
"CN1CCN(c2cnc3ccccc3c2)CC1 [Compound 35, 3-(4-Methylpiperazin-1-yl)quinoline]",fold drop in affinity,[1]; compared to (iso)quinolines 51 and 52,> 250 fold
"CN1CCN(c2ncc3cc(Cl)ccc3n2)CC1 [Compound 11, 6-Chloro-2-(4-methylpiperazin-1-yl)quinazoline]",fold reduction in affinity,[1]; compared to compound 6,~10 fold
"CNc1nc(N2CCN(C)CC2)cc2ccccc12 [Compound 40, N-Methyl-3-(4-methylpiperazin-1-yl)isoquinolin-1-amine]",fold lower affinity,[1]; [3],~5 fold
"CNc1cc(N2CCN(C)CC2)nc2ccccc12 [Compound 31, N-Methyl-2-(4-methylpiperazin-1-yl)quinolin-4-amine]",fold drop in affinity,[1]; [4],~30 fold
CN1CCN(c2nc(N(C)C)c3cc(Cl)ccc3n2)CC1 [Compound 13],fold reduction in affinity,[1]; compared to compound 6,~10 fold
"CNc1nc(N2CCN(C)CC2)nc2ccccc12 [Compound 21, N-Methyl-2-(4-methylpiperazin-1-yl)quinazolin-4-amine]",fold reduction in affinity,[1]; compared to compound 6,~5 fold
CNc1nc(N2CCN(C)CC2)nc2ccc(Cl)cc12 [Compound 6],fold increase in affinity,[1]; compared to compound 1,16 fold
"CN1CCN(c2cc3ccccc3c(N)n2)CC1 [Compound 39, 3-(4-Methylpiperazin-1-yl)isoquinolin-1-amine]",fold lower affinity,[1]; [3],140 fold
"CN1CCN(c2ccc3c(N)cccc3n2)CC1 [Compound 46, 2-(4-Methylpiperazin-1-yl)quinolin-5-amine]",fold drop in affinity,[1]; compared to compound 30,~100 fold
same,fold drop in affinity,[1]; [4],~1000 fold
